Tested on: SK-MEL-28 cells (B-RAF V600E mutated)
Assay: Inhibition of the proliferation of cultivated human melanoma cells (SK-MEL-28), AlamarBlue
Type: cell-based
Conditions: 72 h incubation
Description: Measurement of the Inhibition of the Proliferation of Cultivated Human Melanoma Cells (SK-MEL-28, B-RAF^[…] Mutated)
For measuring the proliferation of cultivated human tumour cells, cells of the melanoma cell line SK-MEL-28 [from American Type Culture Collection (ATCC)] are cultivated in MEM medium, supplemented with 10% foetal calf serum, 2% sodium bicarbonate, 1 mM sodium pyruvate, 1% non-essential amino acids (e.g. from Cambrex, # BE13-114E) and 2 mM glutamine. SK-MEL-28 cells are placed in 96-well flat bottomed dishes in a density of 2500 cells per well in supplemented MEM medium (see above) and incubated overnight in an incubator (at 37° C. and 5% CO2). The active substances are added to the cells in different concentrations, so that a concentration range of 50 μM to 3.2 nM is covered. If necessary the initial concentration of 50 μM is changed to 10 μM or 2 μM and further dilution is carried out accordingly (up to 0.6 nM or 0.12 nM). After an incubation period of a further 72 h 20 μL AlamarBlue reagent (Serotec Ltd., # BUF012B) are added to each well and the cells are incubated for a further 3-6 h. The colour change of the AlamarBlue reagent is determined in a fluorescence spectrophotometer (e.g. Gemini, Molecular Devices). EC50 values are calculated using a software program (GraphPadPrizm).

Compound `CC(C)CS(=O)(=O)Nc1ccc(F)c(-n2cc(-c3cncc(N4CCN(CC5CC5)CC4)c3)nn2)c1F` [Example I-28] has an EC50 of 88 nM.
Work on `CCCS(=O)(=O)Nc1ccc(F)c(-n2cc(-c3cncc(N4CCN(CCOC(C)C)CC4)c3)nn2)c1F` [Example I-16] yielded an EC50 of 87 nM.
For `CCCS(=O)(=O)Nc1ccc(F)c(-n2cc(-c3cncc(N4CCC(N5CCOCC5)CC4)c3)nn2)c1F` [Example I-8], the EC50 was 305 nM.
Compound `CCCS(=O)(=O)Nc1ccc(F)c(-n2cc(-c3cncc(N4CCN(CCOCC)CC4)c3)nn2)c1F` [Example I-3] has an EC50 of 82 nM.
Compound `CCCS(=O)(=O)Nc1ccc(F)c(-n2cc(-c3cncc(N4CCN(CC#N)CC4)c3)nn2)c1F` [Example I-52] has an EC50 of 153 nM.
With `CCCS(=O)(=O)Nc1ccc(F)c(-n2cc(-c3cncc(N4CCN(C(C)(C)C)CC4)c3)nn2)c1Cl` [Example I-76] the EC50 was 65 nM.
Work on `C#CCN1CCN(c2cncc(-c3cn(-c4c(F)ccc(NS(=O)(=O)CCC)c4Cl)nn3)c2)CC1` [Example I-73] yielded an EC50 of 44 nM.
`CC(C)N1CCN(c2cncc(-c3cn(-c4c(F)ccc(NS(=O)(=O)c5ccoc5)c4F)nn3)c2)CC1` [Example I-61] was tested, and the EC50 was 10 nM.
Compound `CCCS(=O)(=O)Nc1ccc(F)c(-n2cc(-c3cncc(OCCN(C)C(C)C)c3)nn2)c1F` [Example I-37] has an EC50 of 928 nM.
`CCCS(=O)(=O)Nc1ccc(F)c(-n2cc(-c3cncc(N4CCN(CC5CC5)CC4)c3)nn2)c1Cl` [Example I-64] was tested, and the EC50 was 38 nM.
`CCCS(=O)(=O)Nc1ccc(F)c(-n2cc(-c3cncc(OCC)c3)nn2)c1F` [Example I-35] was tested, and the EC50 was 358 nM.
`CCCS(=O)(=O)Nc1ccc(F)c(-n2cc(-c3cncc(OCCOC)c3)nn2)c1F` [Example I-36] was tested, and the EC50 was 589 nM.
`CCCS(=O)(=O)Nc1ccc(F)c(-n2cc(-c3cncc(-n4cnc(C(F)(F)F)c4)c3)nn2)c1F` [Example I-57] gave an EC50 of 306 nM.
For `CCCS(=O)(=O)Nc1ccc(F)c(-n2cc(-c3cncc(-n4cc(C)nc4C)c3)nn2)c1F` [Example I-48], the EC50 was 545 nM.
Work on `CCCCS(=O)(=O)Nc1ccc(F)c(-n2cc(-c3cncc(OC)c3)nn2)c1F` [Example I-43] yielded an EC50 of 432 nM.
`CCCS(=O)(=O)Nc1ccc(F)c(-n2cc(-c3cncc(N(C)CCN4CCOCC4)c3)nn2)c1F` [Example I-31] was tested, and the EC50 was 1450 nM.
With `COc1cncc(-c2cn(-c3c(F)ccc(NS(=O)(=O)C(C)C)c3F)nn2)c1` [Example I-19] the EC50 was 493 nM.
For `COc1cncc(-c2cn(-c3c(Cl)ccc(NS(=O)(=O)C(C)C)c3F)nn2)c1` [Example I-41], the EC50 was 403 nM.
Compound `C#CCN1CCN(c2cncc(-c3cn(-c4c(F)ccc(NS(=O)(=O)c5ccoc5)c4Cl)nn3)c2)CC1` [Example I-72] has an EC50 of 10 nM.
